The text below walks through data of patent publication US11739326B2, “RUNX1 inhibition for treatment of proliferative vitreoretinopathy and conditions associated with epithelial to mesenchymal transition” (The Schepens Eye Research Institute, Inc., priority 2017, dated 2023).

Experiment [1] has as its system ARPE-19 cells. Nature of the experiment: CyQuant cell proliferation assay in ARPE-19 cells. Format: cell-based. Conditions: for percent live cells: Ro5-3335 100, 50, 25 μM, methotrexate 400, 100, 10 μM, alone or in combination vs vehicle. On the procedure: (§1) ARPE 19 cells were cultured in 96 well plates for 8 hours, followed by treatment with RUNX1 inhibitor (Ro5-3335, Calbiochem) or Methotrexate (Sigma) in growth media or vehicle only for a period of 24 or 48 hours. The cells were washed and the CyQuant Direct nucleic acid stain was added and incubated at 37° C. in the incubator. Fluorescence read outs were measured at wavelengths as instructed in the protocol.

The test system of experiment [2] is C-PVR cells. Briefly: Ki67 staining of C-PVR cells (cell number and proliferative capacity). Format: cell-based, human. The note with it: Ro5-3335 150 μM, 48 hours, vs vehicle. On the procedure:
C-PVR (e.g., case 5) cells were transfected with the siRUNX1 or siScramble for 48 hours and washed and fixed with 4% paraformaldehyde for 10 minutes at room temperature. The cells were washed with PBS and blocked for an hour in (10% goat serum in PBS) incubated with rabbit anti-Ki67 antibody (1:50; Novus Biologicals) overnight at 4 degrees. Cells were incubated with secondary antibody goat anti-rabbit 594 (1:300; Life Technologies) for 2 hours along with DAPI, then were washed and imaged (FIG. 7A-7I; quantitation depicted in FIG. 8).
C-PVR cells (e.g., case 5) were cultured in 48 well plates for 24, followed by treatment with 150 μM RUNX1 inhibitor (Ro5-3335, Calbiochem), or vehicle only for a period of 48 hours. The cells were washed and fixed with 4% paraformaldehyde for 10 minutes at room temperature. The cells were washed with PBS and blocked for an hour in (10% goat serum in PBS) incubated with rabbit anti-Ki67 antibody (1:50; Novus Biologicals) overnight at 4 degrees. Cells were incubated with secondary antibody goat anti-rabbit 594 (1:300; Life Technologies) for 2 hours along with DAPI, washed, imaged and quantified using Image J (FIGS. 9A and 9B).
C-PVR cells (e.g., case 5) were cultured in 48 well plates for 24, followed by treatment with 150 μM RUNX1 inhibitor (Ro5-3335, Calbiochem), or vehicle only for a period of 48 hours. […]

Experiment [3] has as its system ARPE-19 cells. Nature of the experiment: Growth factor-induced EMT in ARPE-19 cells (morphology, marker immunofluorescence). Format: cell-based. Conditions: TGFβ2, TNFα. As to the method:
ARPE-19 cells were grown to confluence and maintained in 1% serum for 7-10 days (FIG. 22). Cells were treated with growth factors TGFβ2, TNFα and IL-6 (10 ng/ml each) for 3 days, with 150 μM RUNX1 inhibitor (Ro5-3335, Calbiochem) or without (e.g., vehicle). […] EMT was determined by morphological changes including cell shape.
Furthermore, treatment with RUNX1 small molecule inhibitor, Ro5-335, in ARPE-19 cells prevented EMT. This was assessed by the reduction in the epithelial marker, cytokeratin, and an increase in the mesenchymal markers such as fibronectin, and smooth muscle actin (FIGS. 23A and 23B). ARPE-19 cells were grown to confluence and maintained in 1% for 7-10 days. Cells were treated with TGFβ2, TNFα, and a combination of TGFβ2, TNFα and IL-6 (10 ng/ml each) for 3 days with or without 150 uM RUNX1 inhibitor (Ro5-3335, Calbiochem) or vehicle. Cells were washed and fixed with 4% paraformaldehyde for 10 minutes at room temperature. Cells were incubated with primary antibodies, mouse anti-cytokeratin (1:250; Abcam), or rabbit anti-fibronectin (1:500, Sigma) or smooth muscle actin (1:50; DAKO) overnight at 4° C. […]
ARPE-19 cells were grown to 60-70% confluence. […] EMT was determined by morphological changes (e.g., cell shape).

The subject of experiment [4] is human PVR membranes. Briefly: Human PVR membrane explant model in Matrigel. The note with it: Ro5-3335 150 μM, combination with methotrexate 400 μM; for growth of human PVR membranes in explant model: vs control (DMSO). Format: cell-based. On the procedure:
(§2) PVR membranes were freshly obtained from patients and placed in growth factor-reduced Matrigel (BD Biosciences) seeded in 24 well plates. 30 μl of matrigel were used to coat the bottom of 24 well plates without touching the edges of the well. After seeding the PVR membrane, explant plates were incubated in a 37° C. cell incubator without medium for 10 minutes in order for the Matrigel to solidify. 500 μl of medium was added to each well and incubated at 37° C. with 5% CO2. The explants were treated with RUNX1 inhibitor (Ro5-3335). Phase contrast photos of individual explants were taken daily.
as §2, with “from patients,” for “from patients and”, “(BD Biosciences), and” for “(BD Biosciences)”, “matrigel was” for “matrigel were”, “After seeding,” for “After seeding”, “PVR membrane” for “PVR membrane,”, “inhibitor (Ro5-3335) or a combination of Ro5-3335 and methotrexate.” for “inhibitor (Ro5-3335).”

Experiment [5] concerns C-PVR cells. Briefly: CyQuant cell proliferation assay in C-PVR cells. In kind it is cell-based, human. The note with it: for percent live cells: C-PVR, Ro5-3335 100, 50, 25 μM, methotrexate 400, 100, 10 μM, alone or in combination vs vehicle.
Experiment [6] concerns C-PVR cells. Nature of the experiment: CyQuant cell proliferation assay in C-PVR cells. Format: cell-based, human. Conditions: for proliferation / percent live cells of C-PVR cells: 72 hours, vs vehicle. As to the method:
as §1
A CyQuant Cell Proliferation Assay was performed 48 and 72 hours post-treatment, with lenalidomide at 40 nM, and 80 nM. […] C-PVR cells were cultured in 96 well plates for 8 hours, followed by treatment with lenalidomide (Sigma-Aldrich) in growth media or vehicle only for a period of 48 or 72 hours. The cells were washed, and CyQuant Direct and nucleic acid stain was added and incubated at 37° C. Fluorescence read outs were measured at wavelengths as instructed in the protocol.

Entries after “also recorded” stand apart in the source; their conditions may differ.

For `O=C1CN=C(c2ccc[nH]2)c2cc(Cl)ccc2N1` [Ro5-3335], the “efficacy at inhibiting growth of ARPE-19 cells compared to methotrexate” value in experiment [1] (24 or 48 hours) is given as “more efficacious at inhibiting growth of ARPE-19 cells; also recorded: more efficacious than treatment with methotrexate”. Moreover, the percent live cells result in experiment [1] (ARPE-19, 24 hours) is recorded as “significant reduction in percent live cells”; in experiment [1] (ARPE-19, 48 hours), “significant reduction in percent live cells”; in experiment [5] (24 hours), “significant reduction in percent live cells”; in experiment [5] (48 hours) it was “significant reduction in percent live cells”. For the same compound, the “cell number and proliferative capacity of C-PVR cells (Ki67 staining)” value was “significant reduction in the cell number and proliferative capacity” in experiment [2]; “significant reduction in the cell number and proliferative capacity” in experiment [2] (listed as Ro5-335). For the same compound, in experiment [3] (IL-6 (10 ng/ml each) 3 days, Ro5-3335 150 μM vs vehicle), the “EMT determined by morphological changes including cell shape” value is recorded as “either no or reduced EMT”. Further, the “EMT assessed by cytokeratin, fibronectin and smooth muscle actin immunofluorescence” value in experiment [3] (combination with IL-6 (10 ng/mL each) 3 days, Ro5-3335 150 uM) is on record as “prevented EMT”. In addition, the “detachment of the branches from the primary tissue in human PVR explants” value in experiment [4] is reported as “Detachment of the branches from the primary tissue was also observed”. The “branching, regression of branches and apoptosis in human PVR explants” value in experiment [4] (vs DMSO) was “apoptosis, less branching and a faster regression of the branches; also recorded: Less branching, a faster regression of the branches and apoptosis”. Further, the results for the “growth of human PVR membranes in explant model” value in experiment [4] and in experiment [4] (listed as Ro5-335) were “significant reduction of human PVR; also recorded: no growth after 4 days; also recorded: reduced growth of human PVR membranes” and “reduced the growth of human PVR membranes; also recorded: now growth after four days”, respectively. In experiment [5] (24 or 48 hours), the “efficacy at inhibiting growth of C-PVR cells compared to methotrexate” value is recorded as “more efficacious than treatment with methotrexate at inhibiting growth of C-PVR cells”.

On to `Nc1cccc2c1CN(C1CCC(=O)NC1=O)C2=O` (stereo not drawn) [lenalidomide, 3-(7-amino-3-oxo-1H-isoindol-2-yl)piperidine-2,6-dione], for which the “proliferation of C-PVR cells” value in experiment [6] (40 nM, 48 hours) is listed as “inhibited proliferation”; in experiment [6] (80 nM, 48 hours), “inhibited proliferation”; in experiment [6] (40 and 80 nM, 48 and 72 hours (summary statement)), “significantly reduced proliferation”; in experiment [6] (40 and 80 nM, 48 and 72 hours (summary statement), listed as Lenlidomide) it was “inhibited proliferation”. Also, the “proliferation / percent live cells of C-PVR cells” value in experiment [6] (40 nM) and in experiment [6] (80 nM) was “significant reduction in percent live cells” in each case.

Take `CN(Cc1cnc2nc(N)nc(N)c2n1)c1ccc(C(=O)N[C@@H](CCC(=O)O)C(=O)O)cc1` [methotrexate]: the percent live cells entry in experiment [1] (ARPE-19, 24 hours) is on record as “significant reduction in percent live cells”; in experiment [1] (ARPE-19, 48 hours), “significant reduction in percent live cells”; in experiment [5] (24 hours), “significant reduction in percent live cells”; in experiment [5] (48 hours) it was “significant reduction in percent live cells”.
